From BindingDB's records for doi:10.1021/jm801026e (Wyeth Research, 2009) come the findings set out here.

A short description of test [1]: Inhibition of retinoblastoma susceptibility gene product phosphorylation in human MCF7 cells after 24 hrs.
Test [2] concerns the target 3-phosphoinositide-dependent protein kinase 1 (Homo sapiens) (UniProt O15530). Put plainly: Inhibition of PDK1.

By IC50 is commonly meant the concentration at which inhibition is half-maximal. Low readings indicate greater potency in that assay, high ones weaker potency in that assay. For the compound `CCCOc1cnc(CNC=C2C(=O)NC(=O)c3ccc(C(C)(C)C)cc32)cc1O` [6-tert-Butyl-4-{[(4-hydroxy-5-propoxy-pyridin-2-ylmethyl)-amino]-methylene}-4H-isoquinoline-1,3-dione], in test [1], half-maximal inhibition (IC50) was put at 200 nM. Turning to `O=C1NC(=O)c2ccc(I)cc2C1=CNCc1ccn(-c2ccoc2)c(=O)c1` [(4Z)-4-[({[1-(3-Furyl)-2-oxo-1,2-dihydropyridin-4-yl]methyl}-amino)methylene]-6-iodoisoquinoline-1,3(2H,4H)-dione], the IC50 in test [1] worked out at 370 nM. Take `O=C1NC(=O)c2ccc(I)cc2C1=CNCc1ccc(-c2ccoc2)c(O)c1` [4-[(4-Furan-3-yl-3-hydroxy-benzylamino)-methylene]-6-iodo-4Hisoquinoline-1,3-dione]: the IC50 was 17 µM in test [2] and 610 nM in test [1].
